Patent US20100216875A1, “METHODS OF TREATING ALZHEIMER'S DISEASE” (priority 2006, published 2010)

Columns and labels:
[1] = tested on: transgenic APPIn mice (London mutant human APP); test: Morris water maze test in transgenic APPIn mice; type: in vivo, mouse; details: icv 0.015 mg/kg/day, 28 days, p<0.005
Procedure: Transgenic mice expressing human APP containing the London mutation (APPIn) mimic AD function and pathology in that they are cognitively deficient, have brain amyloid plaque and elevated Aβ (8). […] CA074Me or E64d were administered by icy infusion in brains (0.015 mg/kg/day) for 28 days (8 animals per treatment group).
Thus, irreversible cathepsin B inhibitors are efficacious in this AD animal model, causing an 80% improvement in cognitive function and a 50% decrease in amyloid plaque load and brain Aβ. Thus, these tests indicate that Cathepsin B inhibitors are effective at reversing the cognitive deficit caused by AD
(§1) The status of memory impairment in the APPIn or APPswe/In mice with and without administration of select compounds was assessed by the Morris water maze test. The water maze test is widely used in mouse AD animal models to evaluate cognitive impairment in such AD models. Water maze tests were conducted as previously described (87-89).
Drug-treated and vehicle-treated mice were tested in the Morris water maze test. Mice were trained in a 1.2 meter open field water maze. The pool was filled to a depth of 30 cm with water and maintained at 25° C. The escape platform (10 cm square) was placed 1 cm below the surface of the water. During the trials, the platform was removed from the pool. […] These trials were not recorded since they were for training purposes only. […]

[2] = tested on: APPswe/In mice; test: amyloid load, Aβ, CTFβ and sAPPα in APPswe/In mice; type: in vivo, mouse; details: Mean + % SEM
Procedure: (§2) Cathepsin B inhibitors were also evaluated in another transgenic mouse that expressed human APP containing both the Swedish mutant β-secretase and the London γ-secretase site (APPswe/In).
The mouse model of AD expressing human APP containing the Swe mutant β-secretase site and the London mutation (APPswe/In) also overproduce Aβ, and develop neuropathology and behavior that mimic AD. APPswe/In was generated by site-directed mutagenesis at the β-secretase site of the APPIn to convert Lys-Met to the mutant Asn-Leu. Both APPswe/In and APPIn mouse strains were created in a C57BL/6 mouse background using the Thy-1.2 expression cassette driven by the Thy-1 promoter containing an SV40 polyadenylation site. The APPswe/In mice differ from the APPIn in that APPswe/In mice contain the Swedish mutant β-secretase site rather than the wt β-secretase site found in APPIn.
Direct icy infusion into the brain was the first route of administration to be tested to establish the effectiveness of reversible inhibitors in the brain to provide cognitive improvement, and reduction in brain Aβ peptides and amyloid plaques. Icy infusion was performed as described above for the irreversible inhibitors with use of the Alzet minipump. The initial dose utilized was the same dosage used for E64d and CA074Me in the APPIn mice or APPswe/In mice Administration of these compounds began at approximately 1-2 months of age and infusion was conducted for periods of 1, 2, 4, and 8 months (or other time periods). Administration of the select reversible compounds by direct icy infusion into mouse brains was conducted initially at 0.025 μl/hr of 1 mg/ml, other doses may be examined based on results with the first dose. Each time point was conducted with about 8-10 animals and 8-10 normal control animals (age-matched) (or greater number of mice per treatment group, if necessary, for appropriate statistical evaluation). At the end of each of these infusion periods, cognitive testing and assessment of Aβ peptide levels with plaque pathology was evaluated. At each of these time points, mice were tested for cognition, and then sacrificed for evaluation of Aβ and neuropathology in the brain
After behavioral testing was completed, the mice were sacrificed for analyses of Aβ40 and Aβ42 peptide levels, and neuropathology. One half brain (one hemisphere) was utilized to prepare brain extracts for measurement of Aβ40 and Aβ42 levels by ELISA assays, and the other half brain was used for neuropathological evaluation. Procedures for preparation of brain extracts and ELISA assays for Aβ peptides are those used for analyses of guinea pig brains
Aβ-related neuropathology was assessed in cortex and hippocampus of brains. The relative extent of Aβ immunoreactivity in neurons and glial cells was assessed. Immunostaining for Aβ was conducted as described previously (58) Aβ-related neuropathology was assessed in cortex and hippocampus of brains, as well as other regions of the brain as controls. Brain tissue was fixed in 4% paraformaldehyde overnight, and then processed to paraffin. Serial sections were obtained, deparaffinized and washed in TBS buffer. Each section was blocked with appropriate normal serum (mouse or rabbit), and subjected to primary anti-Aβ antibody for detection of amyloid deposits. Sections were then stained with DAB ([…]) with the Vector ABC Elite kit (Vector Laboratories). Amyloid areas were imaged with microscopic computer-assisted analysis system using the NIH Image Analysis Software.

[3] = tested on: APPswe/In mice; test: Morris water maze test in APPswe/In mice; type: in vivo, mouse; details: Mean + % SEM; for Latency Period: same treatment as APPIn mice
Procedure: as §2, §1
Drug-treated and vehicle-treated mice were tested in the Morris water maze test. Mice were trained in a 1.2 meter open field water maze. The pool was filled to a depth of 30 cm with water and maintained at 25° C. The escape platform (10 cm square) was placed 1 cm below the surface of the water. During the trials, the platform was removed from the pool. The cued test was carried out in the pool surrounded with white curtains to hide any extra-maze cues. Aβ animals underwent non-spatial pretraining (NSP) for three consecutive days. These trials were to prepare the animals for the final behavioral test to determine whether there was sufficient retention of memory to find the platform. These trials were not recorded since they were for training purposes only. For the training and learning studies, the curtains were removed to extra maze cues to allow identification of animals with swimming impairments. On day 1, the mice were placed on the hidden platform for 20 seconds (trial 1), for trials 2-3 animals were released in the water at a distance of 10 cm from the cued-platform or hidden platform (trial 4) and allowed to swim to the platform. On the second day of trails, the hidden platform was moved randomly between the center of the pool and the center of each quadrant. The animals were released into the pool, randomly facing the wall and were allowed 60 seconds to reach the platform (3 trials). In the third trial, animals were given three trials, two with a hidden platform and one with a cued platform. Two days following the NSP, the animals were subjected to final behavioral trials (Morris water maze test). For these trials (3 per animal), the platform was placed in the center of one quadrant of the pool and the animals were released facing the wall in a random fashion. Each animal was allowed to find the platform or swim for 60 seconds (latency period, the time it takes to find the platform). Aβ animals were tested within 4-6 hours of dosing and were randomly selected for testing by an operator blinded to the test group.

[4] = target: aspartyl protease, BACE1 (Homo sapiens, UniProt P56817); test: effect on BACE1; type: biochemical
[5] = tested on: primary neuronal chromaffin cells; details: cited from earlier work
[6] = tested on: muscular dystrophy; details: Phase I through III trials, Japan; cited from earlier work
[7] = mice, rats and dogs; cited from earlier work

Chain of aspartyl protease, BACE1 (P56817 46-501): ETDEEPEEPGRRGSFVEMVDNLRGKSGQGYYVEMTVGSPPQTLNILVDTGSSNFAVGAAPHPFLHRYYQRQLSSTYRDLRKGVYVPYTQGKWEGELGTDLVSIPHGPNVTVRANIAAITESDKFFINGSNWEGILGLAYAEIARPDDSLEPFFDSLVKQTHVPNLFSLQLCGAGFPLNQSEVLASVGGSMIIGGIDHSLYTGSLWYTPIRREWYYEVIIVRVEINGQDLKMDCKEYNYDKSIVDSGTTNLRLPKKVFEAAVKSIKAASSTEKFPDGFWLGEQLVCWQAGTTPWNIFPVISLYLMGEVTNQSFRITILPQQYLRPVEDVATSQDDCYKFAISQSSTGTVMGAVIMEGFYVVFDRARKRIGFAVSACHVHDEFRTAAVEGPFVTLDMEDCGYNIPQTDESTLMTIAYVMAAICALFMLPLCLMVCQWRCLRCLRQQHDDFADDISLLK

Row | Structure (SMILES) | average latency period (Morris water maze) vs control [1] | Amyloid load [2] | Aβ40 [2] | Aβ42 [2] | CTFβ [2] | sAPPα [2] | Distance Traveled [3] | Latency Period [3] | effect on BACE1 [4] | CTFβ production in primary chromaffin cell cultures [5] | efficacy in muscular dystrophy [6] | therapeutic window / LD50 [7]
1 | CCCNC(=O)[C@H]1O[C@@H]1C(=O)N[C@H](C(=O)N1CCC[C@H]1C(=O)OC)[C@@H](C)CC [CA074Me] | significantly lower average latency period | 1.07 + 4% | 91 + 4% | 97 + 3% | 97 + 3% | 101 + 4% | 246 + 13% | 37 + 12% | do not affect | reduced CTFβ production | – | –
2 | CCOC(=O)[C@H]1O[C@@H]1C(=O)N[C@@H](CC(C)C)C(=O)NCCC(C)C [E64d] | significantly lower average latency period | 1.06 + 4% | 92 + 7% | 101 + 3% | 100 + 3% | 98 + 3% | 270 + 12% | 40 + 10% | do not affect | – | lack of efficacy | excellent therapeutic window
